# Laboratory results published in patent US9884040B2, “Desethylamiodarone for use in cancer treatment” (PÉCSI TUDOMÁNYEGYETEM, priority 2015, dated 2018).
# How the values were obtained:
# [1] = system: DU-145 prostate cancer cell line; experiment: Cisplatin sensitivity of DU-145 cells with DEA (MTT); assay type: cell-based; details: increasing cisplatin, 48 hours, presence or absence of 10 μM DEA
# Experimental: The cells were seeded into 96-well plates at a starting density of 10^4 cells per well and cultured overnight before DEA was added to the medium for 24 h and 48 h. The medium was changed to a fresh one containing 0.5% of 3-[4,5-dimethylthiazol-2-yl]-2,5-diphenyl-tetrazolium bromide (MTT+) for an additional 3 hours, then the MTT+ reaction was terminated by adding HCl to 10 mM final concentration. The amount of blue formazan dye formed from MTT+ was proportional to the number of live cells, and was determined with an Anthos Labtech 2010 ELISA reader at 550 nm. All experiments were run in at least 4 replicates and repeated 3 times.
# DU-145 cells were exposed to increasing concentrations of cisplatin 48 hours in presence or absence of 10 μM DEA. Viability of the cells was detected by the MTT method. Untreated cells served as controls.
# [2] = system: B16F10 mice melanoma cell line; experiment: Colony formation assay, B16F10; assay type: cell-based; details: one week; 1, 1.5, 2, 2.5 or 3 μM
# Experimental: Cells were trypsinized and plated in triplicate into 6-well plates at 500 cells/well. Cells were treated with different concentration of Dea. After 7 days of incubation, cells were washed and stained with Coomassie-blue, and the colonies containing more than 50 cells were counted. The number of colonies were determined and normalized to the number of colonies in controls. To assess the recovery ability of cells that survived treatment, long-term (7 days) colony formation assay was performed. […] B16F10 cells were incubated with the indicated concentrations of desethylamiodarone (1, 1.5, 2, 2.5 or 3 μM for one week and cell colonies were fixed, stained and counted. (A-B) Data are expressed as the mean±SD of ≧3 experiments; a p<0.01 is considered statistically significant. The data shown on FIG. 6 provide evidence that DEA can be useful to treat melanoma.
# [3] = system: B16F10 melanoma lung metastasis; experiment: Mouse model of B16F10 lung metastasis; assay type: in vivo, C57BL/6 mice
# Experimental: To produce experimental metastasis model, male C57BL/6 mice (6 weeks old) were used. B16F10 cells ([…]/0.1 ml) were injected into the lateral tail vein of C57BL/6 mice, using a 30G1/2 needle and a 1-mL syringe. Mice were randomly divided into 3 groups of 6 mice each. Each mouse was given a daily intragastric injection of either 100 μl 15% ethanol solution as the vehicle control or 25 mg/kg DEA. Treatment was started 1 day before cell injection and was given every third day, lasted for consecutive 16 days Sixteen days after injection, the animals were weighed and killed. The lungs were removed, rinsed in PBS, and weighed. The lung weight index was calculated as the ratio of lung weight vs body weight. The harvested lungs were fixed in 4% formalin. Tumor foci on the surfaces of the lungs were counted under a stereomicroscope. Then, the whole lung was embedded in optimum cutting temperature compound (Sakura Finetek, SA), sectioned ([…], 5 levels), and stained with hematoxylin and eosin (H&E) according to routine protocols. […] The percentage of total area of the stained sections occupied by tumor was measured using the Panoramic viewer 1.15.4 (3[…], Hungary) Murine melanoma B16F10 cells were injected into the lateral tail vein of 6-weeks-old male C57BL/6 mice and divided into two groups (6 mice/group). […] Lungs were photographed (FIG. 9 A,B), weighted and lung weight index was calculated as the ratio of lung weight versus body weight of host mice, and was compared between the two groups. […] Metastatic nodules on lung surface were counted. […] 24 h after injection of melanoma B16F10 cells, mice in the control group were treated with vehicle (alcohol), mice in the treatment group were injected with desethylamiodarone (25 mg/kg, i.p., every 3rd day.) After 16 day's mice were sacrificed and then analyzed. […] Lung weight was determined and lung weight index was calculated (C). Tumor growth was monitored also by counting the tumor nodules (D). […] Lung tissue sections were analyzed histopathological after H & E staining. […]
# [4] = system: GSK-3β; experiment: Western blot of GSK-3β phosphorylation; assay type: cell-based, human; details: 5-10-15 μM, 6 hours; T24, B16F10 cell lines
# Experimental: 10^6 cells were seeded into regular plates and treated as for the cell viability assay. Cells were harvested at intervals in a chilled lysis buffer containing 0.5 mM sodium-metavanadate, 1 mM ethylenediaminetetraacetic acid (EDTA) and protease inhibitor cocktail in phosphate-buffered saline (PBS). Probes were boiled and subjected to 10% sodium dodecyl sulphate polyacrylamide gel electrophoresis then transferred to nitrocellulose membranes. The membranes were blocked in 5% low fat milk for 1.5 h at room temperature then exposed to primary antibodies at 4° C. overnight in blocking solution. Appropriate horseradish peroxidase-conjugated secondary antibodies were used at a 1:5000 dilution (anti-mouse and anti-rabbit IgGs; Sigma-Aldrich, Steinheim, Germany) and visualized by enhanced chemiluminescence (Amersham Biosciences, Piscataway, N.J., USA). All experiments were repeated 3 times.
# To determine the downstream consequences of DEA treatment, we examined the phosphorylation status of AKT (protein kinase B), GSK-3β and p42/44 mitogen-activated protein kinase (MAPK) (ERK1/2) by immunoblotting in T24 (human urinary bladder carcinoma), B16F10 (mice melanoma) cell lines. Cells were cultured in the presence of 5-10-15 μM DEA for 6 hours. The cells were prepared and western blot analysis was carried out to perform both phosphorylated and non-phosphorylated forms of the previously listed proteins. […]
# [5] = clinically relevant concentrations; cited from earlier work
# [6] = 25 mg/kg i.p. every 3rd day, day 16, B16F10 tail vein injection
smiles,measurement,setting,value
"CCCCc1oc2ccccc2c1C(=O)c1cc(I)c(OCCNCC)c(I)c1 [DEA, (2-butyl-3-benzofuranyl)[4-[2-(ethylamino)ethoxy]-3,5-diiodophenyl]-methanone]",Cisplatin sensitivity of DU-145 cells (MTT),[1],sensitizes DU-145 prostate cancer cells for cisplatin
same,"Colony formation, B16F10",[2],significant decrease in the number and the size of colonies
same,Lung weight index (lung weight versus body weight),[3]; [6],significantly *P<0.001 inhibited lung weight increase
same,Number of tumor nodules on lung surface,[3]; [6],dramatically decrease in the number of tumor nodules
same,Percentage of tumor area over lung section area (H&E),"[3]; 25 mg/kg/3 days, n=6 per group",significantly decreased
same,GSK-3β phosphorylation,[4],decreased the phosphorylation of GSK-3β
same,Action potential duration (class III antiarrhythmic effect),[5],significantly increasing the action potential duration
same,Maximum rate of depolarization (class I antiarrhythmic effect),[5],decreasing the maximum rate of depolarization
